In the case of `CCOc1cc2c(cc1OC)C=CC(C)(C)O2`, the logP – broadly, a log measure of how a compound divides between an organic and an aqueous phase – was found to be 3.36.

Compound `CCOc1cc2c(cc1Cl)C=CC(C)(C)O2` registered a log partition coefficient (logP) of 4.89.

As to `CC1(C)C=Cc2c(ccc3c2CCC(C)(C)O3)O1`, the logP is 4.01.

The compound `COc1ccc2c(c1)SC(C)(C)C=C2` had a logP of 4.32.

The compound `COc1c2c(cc3c1OC(C)(C)CC3)C=CC(C)(C)O2` showed a logP of 4.47. The logP values of the last two compounds are within 0.2 log units of each other.

As for `CCOc1cc2c(cc1Br)C=CC(C)(C)O2`, the logP is 5.15.

On to `CC1(C)C=Cc2c3c(c4c(c2O1)CCC(C)(C)O4)OC(C)(C)CC3`, for which the logP was 7.67.

`CCc1cc2c(c3c1OC(C)(C)CC3)OC(C)(C)C=C2`: the logP is 6.97.

In the case of `CCc1c2c(cc3c1OC(C)(C)C=C3)C=CC(C)(C)O2`, the log partition coefficient (logP) was 6.89.

On to `CC1(C)C=Cc2cc(Cl)c3c(c2O1)CCC(C)(C)O3`, for which the logP is 6.14.

On to `CC1(C)C=Cc2cc(C(C)(C)C)c3c(c2O1)CCC(C)(C)O3`, for which the logP was determined as 8.17.

With `COc1cc2c(cc1OCC(F)(F)F)OC(C)(C)C=C2`, the logP amounted to 4.49.

In the case of `CC1(C)C=Cc2c(c3c(c4c2OC(C)(C)CC4)OC(C)(C)CC3)O1`, the logP is 5.8.

In turn, `CC1(C)C=Cc2ccccc2O1` showed a logP of 3.42.

Compound `COc1cc2c(cc1OCC(F)(F)F)C=CC(C)(C)O2` came in with a logP of 4.79.

Turning to `COc1ccc2c(c1)OC(C)(C)C=C2`, the logP was 3.46.

`CC1(C)C=Cc2cc(Br)c3c(c2O1)CCC(C)(C)O3` registered a logP of 6.33.

In turn, `COCCOCCOCCOc1cc2c(c3c1OC(C)(C)CC3)OC(C)(C)CC2` came in with a logP of 4.86.

For the compound `CC1(C)C=Cc2ccc(Cl)cc2O1`, the logP came to 4.55.

As for `COc1cc2c(cc1OC)OC(C)(C)C=C2`, the logP worked out at 2.77.

Turning to `COc1cc2c(cc1OC)SC(C)(C)C=C2`, the logP turned out to be 3.52.

With `Cc1ccc2c(c1)OC(C)(C)C=C2`, the logP is 4.03.

As to `Cc1c2c(cc3c1OC(C)(C)CC3)C=CC(C)(C)O2`, the logP was found to be 6.2.

Turning to `CC1(C)C=Cc2cccc(Cl)c2O1`, the logP was 4.06.

The values above are taken from the SangsterLogP compilation.
